Source: PMC9822133, “Design, Synthesis and Antiproliferative Evaluation of Bis-Indole Derivatives with a Phenyl Linker: Focus on Autophagy” (Molecules, 2022)

Assays:
Format in all cases: cell-based, human
[1] = system: glutathione-S-transferase (GST); experiment: GST activity in treated A549 cells; details: A549, 20 µM
Source text: Glutathione is an important intracellular molecule involved in carcinogen detoxification. On the other hand, its elevated state in cancer cells is often associated with resistance to chemotherapy. […] Because high levels of GSH are associated with cancer cell resistance, the GHS-depleting effect of compound 49 could be interesting due to new cancer chemosensitizer development. In the case of GST and GR, we hypothesize that an increase in the activity of both enzymes may be a compensatory mechanism induced by GSH depletion.
Both floating and adherent A549 cells were harvested at 24, 48, and 72 h after treatment with compound 49 (20 µM). SOD determination kit, Glutathione Peroxidase Cellular Activity Assay kit, Glutathione Reductase Assay Kit and Glutathione-S-transferase (GST) Assay Kit (all Sigma Aldrich, Germany) were used for the detection of relevant enzyme activity. Reduced glutathione (GSH) content was measured by the method originally described by Floreani et al.. Assays were performed on an M 501 single beam UV/VIS spectrophotometer (Spectronic Camspec Ltd., Leeds, United Kingdom). All measured parameters were calculated per milligram or gram of protein determined using the bicinchoninic acid assay.

[2] = system: Beclin-1; experiment: Western blot, Beclin-1; details: A549, all time periods, most significantly after 24 h
Source text: Beclin-1 plays a key role in the autophagy process, which is activated in cells during periods of stress. It ensures the recruitment of autophagosomal proteins to the pre-autophagosomal structure (PAS) and is part of a complex that is essential for the induction of autophagy (VSP34 complex). It also interacts with proteins from the Bcl-2 family, by which it can be inactivated or cleaved by caspases. This is considered a crosstalk between autophagy and apoptosis. […] There is no mention in the literature focusing on Beclin-1 (and even autophagy) and indole phytoalexins. However, another phytoalexin, resveratrol, has been described to stimulate autophagy in oral cancer cells. […] Later, Fan et al. confirmed the ability of resveratrol to induce autophagy associated with upregulation of Beclin-1 also in lung cancer A549 cells.
(§1) A549 cells were seeded on Petri dishes (55 cm^2) at a density of 1 × 10^6 and allowed to culture in the medium. After 24 h, the test substance was added, and the cells were incubated for 24, 48 and 72 h. […] After lysis, the cells were sonicated, and the protein concentration in the samples was quantified using the Pierce® BCA Protein Assay Kit (Thermo Scientific, Rockford, IL, USA) and measured by an automated Cytation™ 3 Cell Imaging Multi-Mode Reader (Biotek) at a wavelength of 570 nm. […]

[3] = system: A549 cells; experiment: Annexin V/PI staining
Description: Phosphatidylserine (PS), normally localized in the inner leaflet of the cell membrane, is translocated on the outer surface during induction of apoptosis. Annexin V/PI double staining was performed to analyze the externalization of PS on the outer plasmatic membrane surface together with cell population diversification (An^−/PI^−—living cells; An^+/PI^- early apoptotic cells; An^+/PI^+—late apoptotic/necrotic cells, and An^−/PI^+—dead cells). […] The A549 lung human alveolar adenocarcinoma cells were seeded at a density of 2 × 10^5/dish. After 24 h incubation, the cells were treated with indole phytoalexin 49 at 20 µM concentration alone or after 1 h pre-treatment with chloroquine (20 µM), and the control group with DMSO (v/v 0.02%). The whole population of treated cells (adherent and floating) was harvested at three different times (24, 48 and 72 h), washed with PBS and stained with Annexin V-Alexa Fluor® 647 antibody (Thermo Scientific, Rockford, IL, USA) in binding buffer for 20 min in the dark at RT. After the wash step, samples were stained with 1 μL of propidium iodide (final concentration 25 μg/mL) for 5 min and analyzed using a BD FACSCalibur^TM Flow Cytometer (Becton Dickinson, San Jose, CA, USA). Three independent analyses were performed.

[4] = system: Phospho-ULK Ser555; experiment: Western blot, phospho-ULK1 Ser555; details: A549, all time periods, mostly after 24 and 48 h
Source text: ULK1/AMPK. ULK1 is a serine/threonine protein kinase. The ULK1 complex controls the formation of the phagophore, the initial autophagosomal precursor membrane structure. Upon induction of autophagy, the ULK1 complex translocates to autophagy initiation sites and regulates the recruitment of a second kinase complex, VPS34. ULK1 can be inhibited by phosphorylation by mammalian target of rapamycin complex 1 (mTORC1) or activated after AMP-activated protein kinase (AMPK) phosphorylation. Under conditions of nutrient deficiency, AMPK is activated, which directly activates ULK1. The kinase is phosphorylated, i.e., activated by an increased AMP/ATP ratio due to cellular and environmental stress. AMPK also inactivates mTORC1 and thus blocks its inhibitory action on autophagy activation.
as §1

## CC(C)(C)OC(=O)n1cc(CNC(=O)Nc2ccc(NC(=O)NCc3cn(C(=O)OC(C)(C)C)c4ccccc34)cc2)c2ccccc21 [Compound 49, N,N′-(1,4-phenylene)bis{N′-[1-(tert-butoxycarbonyl)indol-3-yl]methyl (urea)}]
[1]; 24 h
  GST: 3.540 ± 1.07 μkat/mg Prot
[1]; 48 h
  GST: 2.580 ± 0.44 μkat/mg Prot
[1]; 72 h
  GST: 5.060 ± 0.52 μkat/mg Prot
[2]
  Beclin-1 expression: significantly upregulated
[3]; A549, 20 µM, 24, 48 and 72 h, vs DMSO-treated control
  total PS externalization (Annexin V/PI): did not induce
[3]; A549, 49 20 µM + CQ 20 µM, all time points, vs DMSO, CQ or 49 alone
  number of cells in late apoptosis, combination with CQ: significantly increased
[4]
  phosphorylated form of ULK1 at Ser555: significant upregulation
